Laboratory results published in article PMC5407626 (PLoS ONE, 2017).

Key:
[1] = biological target: T1, recombinant mouse BCO1 (Mus musculus, UniProt Q9JJS6); experiment: In vitro inhibition of recombinant mouse BCO1 activity; assay type: biochemical; settings: inhibitor 0–200 μM
T1 construct: His-tag; made in house; host or cells: E. coli
T1 sequence (Q9JJS6 1-566): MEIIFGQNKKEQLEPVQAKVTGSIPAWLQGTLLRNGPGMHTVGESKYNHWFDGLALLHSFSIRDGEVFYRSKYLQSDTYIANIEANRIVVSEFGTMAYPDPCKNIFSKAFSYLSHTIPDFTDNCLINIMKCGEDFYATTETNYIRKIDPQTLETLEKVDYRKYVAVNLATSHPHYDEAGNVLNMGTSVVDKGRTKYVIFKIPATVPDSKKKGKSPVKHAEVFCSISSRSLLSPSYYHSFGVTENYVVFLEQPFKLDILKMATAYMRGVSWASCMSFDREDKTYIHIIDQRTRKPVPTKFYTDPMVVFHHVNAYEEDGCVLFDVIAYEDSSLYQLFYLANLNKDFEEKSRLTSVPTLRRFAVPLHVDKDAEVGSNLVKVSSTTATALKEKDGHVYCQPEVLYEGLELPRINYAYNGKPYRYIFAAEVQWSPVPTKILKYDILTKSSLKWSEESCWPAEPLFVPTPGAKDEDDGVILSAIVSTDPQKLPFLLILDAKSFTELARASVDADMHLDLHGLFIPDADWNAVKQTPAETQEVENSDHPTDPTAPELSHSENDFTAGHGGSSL
Text: Recombinant His-tag mouse BCO1 was produced in E.coli and purified using Talon CellThru (Clontech Labs, Inc., Mountain View, CA) resin as described previously. β-carotene was delivered in 1% octylthioglucoside. […] All other inhibitors were delivered in ethanol. […] The final concentration of ethanol in all samples was 1%. […] Data plotted as means±standard deviation; n = 3; […] Analysis was done in C57BL/6 wt (3 animals) and Bco1^-/- mice (13 animals).

[2] = biological target: T2, RARβ (Homo sapiens, UniProt P10826); experiment: GeneBLAzer RAR-beta DA assay, antagonist mode (competition with at-RA); assay type: cell-based; settings: at-RA 0.5–1.5 nM; tested 10^−5 to 10^−9 M
T2 sequence (P10826 183-417 limits assumed): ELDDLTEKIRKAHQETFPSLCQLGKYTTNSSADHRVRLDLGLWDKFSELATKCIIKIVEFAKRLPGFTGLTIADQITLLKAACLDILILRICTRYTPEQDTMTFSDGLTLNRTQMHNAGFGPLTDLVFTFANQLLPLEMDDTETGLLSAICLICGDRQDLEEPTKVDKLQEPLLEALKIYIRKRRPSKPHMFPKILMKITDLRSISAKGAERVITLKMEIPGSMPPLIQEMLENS
Description: (§1) The potency of agonists and antagonists was measured by GeneBLAzer RAR-beta DA Assay Kit (ThermoFisher Scientific) according to the manufacturer’s recommendations.
The phenylretinamides may have the ability to modulate the expression of proteins and induce cell apoptosis via RAR-dependent and -independent pathways. […] Additionally, apoptosis of neuroblastoma cell lines was blocked by two retinoic acid receptor (RAR)-β/γ-specific antagonists, but not by a RARα-specific antagonist. […] However, in this case the specific RARα-specific antagonist AGN194301 could block fenretinde-induced apoptosis. […] Human retina-derived cells in culture show differences in expression of RAR receptors. […] Clonetics HRPE primary human cells specifically express only RARβ [50].
Fluorescence was measured at excitation (ex) 409 nm/emission (em) 460 and at ex 409nm/em 530 nm and the ratio was determined and plotted against a range of concentrations (10^−5 to 10^−9 M) of the tested compounds.

[3] = biological target: T2, RARβ; experiment: GeneBLAzer RAR-beta DA assay, agonist mode; assay type: cell-based
Description: as §1
The phenylretinamides may have the ability to modulate the expression of proteins and induce cell apoptosis via RAR-dependent and -independent pathways. […] Human retina-derived cells in culture show differences in expression of RAR receptors. […] Clonetics HRPE primary human cells specifically express only RARβ [50].

[4] = biological target: RBP4 (Homo sapiens, UniProt P02753); experiment: Binding to RBP4; settings: data not shown

SMILES: CCOc1ccc(NC(=O)/C=C(C)/C=C/C=C(C)/C=C/C2=C(C)CCCC2(C)C)cc1 [EPR, N-[4-ethoxyphenyl]retinamide]
- effect on BCO1 activity [1]: does not inhibit BCO1 activity
- competition with all-trans-retinoic acid [2]: cannot compete
- EC50 [3]: 4.4 µM
- RBP4 binding compared with MPR [4]: less potent inhibitor
